The values that follow come from patent publication US5436229A, “Bisulfite adducts of arginine aldehydes” (Eli Lilly and Company, priority 1994, dated 1995).

Non-standard residues stand in square brackets, D forms with d. Residues, ends and D or L forms follow the SMILES beside them. dNMeCha = CN[C@H](CC1CCCCC1)C(=O)O

Series [1] has as its target human thrombin (Homo sapiens, UniProt P00734). Briefly: Thrombin amidase inhibition (Kass), chromogenic substrate. The class given is biochemical. The gist of the method: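 Kass, in liter per mole, was averaged over several compound concentrations, using free thrombin from a rate standard curve and free inhibitor as added minus bound. Hydrolysis of chromogenic substrate (0.25 mg/ml solution) was monitored at 405 nm with human thrombin (8 NIH units/ml solution) in Tris-NaCl buffer pH 7.4, compound in 50% aqueous methanol.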

The target in series [2] is T1, Bovine trypsin (Bos taurus, UniProt P00760).
T1 construct: Bovine trypsin is purchased from Worthington Biochemicals; purchased Worthington Biochemicals, Freehold, N.J
T1 sequence (P00760 24-246): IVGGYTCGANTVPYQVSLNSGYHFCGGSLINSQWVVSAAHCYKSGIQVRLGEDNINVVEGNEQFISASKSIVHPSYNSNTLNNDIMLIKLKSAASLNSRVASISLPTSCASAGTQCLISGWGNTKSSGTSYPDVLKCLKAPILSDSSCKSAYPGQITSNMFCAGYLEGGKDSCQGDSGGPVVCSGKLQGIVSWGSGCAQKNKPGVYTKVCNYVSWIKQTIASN
Nature of the series: Serine protease inhibition (Kass), trypsin. The class given is biochemical. The gist of the method: (§1)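 Chromogenic p-nitroanilide substrate assays run as for human thrombin; trypsin with N-Benzoyl-Phe-Val-Arg-p-nitroanilide, human factor Xa with N-Benzoyl-Ile-Glu-Gly-Arg-p-nitroanilide. Values are association constants (Kass).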

Series [3] concerns the target T2, Human plasmin (Homo sapiens, UniProt P00747).
T2 construct: Human plasmin is purchased from Boehringer Mannheim; purchased Boehringer Mannheim, Indianapolis, Ind
Nature of the series: Serine protease inhibition (Kass), plasmin. Type of series: biochemical. The gist of the method: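 Kass values come from the thrombin chromogenic procedure applied to fibrinolytic proteases. t-PA (nt-PA single chain, or mt-PA6) paired with substrate H-D-Ile-Pro-Arg-p-nitroanilide; human plasmin paired with H-D-Val-Leu-Lys-p-nitroanilide.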

The target of series [4] is T3, tissue plasminogen activator (t-PA) (Homo sapiens, UniProt P00750).
T3 construct: purchased American Diagnostica, Greenwich, Conn
T3 sequence (P00750 36-562): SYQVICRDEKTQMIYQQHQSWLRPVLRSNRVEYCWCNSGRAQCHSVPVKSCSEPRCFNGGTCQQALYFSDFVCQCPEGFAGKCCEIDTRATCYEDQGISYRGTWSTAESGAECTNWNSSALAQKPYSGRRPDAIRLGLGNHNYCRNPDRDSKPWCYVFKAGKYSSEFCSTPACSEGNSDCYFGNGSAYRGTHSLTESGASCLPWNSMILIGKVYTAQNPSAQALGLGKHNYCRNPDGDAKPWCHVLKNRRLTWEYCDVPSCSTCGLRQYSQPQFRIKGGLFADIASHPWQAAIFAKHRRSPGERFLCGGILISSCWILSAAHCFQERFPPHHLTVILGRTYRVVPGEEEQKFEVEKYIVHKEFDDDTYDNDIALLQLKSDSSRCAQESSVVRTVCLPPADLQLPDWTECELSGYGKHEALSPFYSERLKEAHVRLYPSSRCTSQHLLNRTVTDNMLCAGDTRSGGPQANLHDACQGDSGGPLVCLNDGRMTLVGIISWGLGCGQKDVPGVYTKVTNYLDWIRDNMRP
Briefly: Serine protease inhibition (Kass), t-PA. The class given is biochemical.

The nature of series [5]: Index of Bioavailability (plasma TT AUC, oral vs i.v.). The settings on record: rats, oral vs i.v. bolus. The class given is in vivo. The source says:
Assays are done in duplicate and averaged.
Each sample population represents alternating sequential time points.

Series [6] addresses T4, factor Xa (Homo sapiens, UniProt P00742).
T4 construct: Human factors X, Xa, IXa, XIa, and XIIa are purchased from Enzyme Research Laboratories; purchased Enzyme Research Laboratories, South Bend, Ind
Nature of the series: Serine protease inhibition (Kass), factor Xa. Type of series: biochemical. The gist of the method: as §1

T2 sequence (P00747 581-810 limits assumed): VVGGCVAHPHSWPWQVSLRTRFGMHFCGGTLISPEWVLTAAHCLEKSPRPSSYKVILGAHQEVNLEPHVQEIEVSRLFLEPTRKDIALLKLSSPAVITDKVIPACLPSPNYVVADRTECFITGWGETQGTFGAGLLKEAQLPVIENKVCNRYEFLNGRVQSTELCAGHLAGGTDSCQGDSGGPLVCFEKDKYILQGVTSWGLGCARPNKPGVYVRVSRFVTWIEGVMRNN
T2 sequence (P00747 97-580 partner limits assumed): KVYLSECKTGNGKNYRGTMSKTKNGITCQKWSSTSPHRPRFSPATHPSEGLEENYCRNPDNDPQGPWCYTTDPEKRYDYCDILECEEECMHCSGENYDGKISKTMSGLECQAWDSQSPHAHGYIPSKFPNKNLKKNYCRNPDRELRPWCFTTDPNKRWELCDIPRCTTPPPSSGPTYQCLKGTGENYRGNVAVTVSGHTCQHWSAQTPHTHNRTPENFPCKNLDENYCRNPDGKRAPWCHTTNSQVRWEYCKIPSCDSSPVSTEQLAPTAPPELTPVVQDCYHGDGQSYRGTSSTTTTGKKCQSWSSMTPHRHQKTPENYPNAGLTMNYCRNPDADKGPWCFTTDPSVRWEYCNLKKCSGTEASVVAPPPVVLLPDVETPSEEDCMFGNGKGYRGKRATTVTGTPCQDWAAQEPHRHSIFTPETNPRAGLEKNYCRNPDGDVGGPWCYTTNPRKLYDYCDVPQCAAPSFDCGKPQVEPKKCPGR
T4 sequence (P00742 235-488 limits assumed): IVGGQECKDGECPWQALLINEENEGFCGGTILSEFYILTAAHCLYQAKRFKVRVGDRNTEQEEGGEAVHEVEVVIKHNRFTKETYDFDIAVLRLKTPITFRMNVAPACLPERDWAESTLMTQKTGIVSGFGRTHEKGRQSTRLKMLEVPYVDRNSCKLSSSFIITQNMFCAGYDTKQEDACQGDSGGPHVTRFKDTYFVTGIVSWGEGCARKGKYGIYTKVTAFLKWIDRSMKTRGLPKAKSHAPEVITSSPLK
T4 sequence (P00742 41-179 partner limits assumed): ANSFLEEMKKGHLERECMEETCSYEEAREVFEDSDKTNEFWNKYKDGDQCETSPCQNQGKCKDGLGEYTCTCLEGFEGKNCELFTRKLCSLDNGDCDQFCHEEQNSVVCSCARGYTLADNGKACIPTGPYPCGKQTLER

Consider `N=C(N)NCCCC(C=O)NC(=O)C1CCCN1C(=O)C1CC2CCCCC2CN1.O=S(=O)(O)O` [80 (Step F), D-3-(cis)Piq-Pro-Arg-H.H2 SO4], for which the “Kass Human Thrombin” value in series [1] was found to be 56 L/mol × 10^6. Moreover, in series [2], the “Kass Trypsin” value stood at 183 L/mol × 10^6. In series [3], the “Kass Plasmin” value was 1.6 L/mol × 10^6. In series [4], the “Kass t-PA” value was found to be 0.5 L/mol × 10^6. For the same molecule, the “Percent Relative Activity (Index of Bioavailability)” value in series [5] is on record as 46%.
In the case of `CN[C@H](CC1CCCCC1)C(=O)N1CCC[C@H]1C(=O)N[C@H](C=O)CCCNC(=N)N.Cl` [Example 75, N-methyl-D-cyclohexylalanyl-L-Prolinyl-L-Arginine Aldehyde Hydrochloride] (H-[dNMeCha]-Pro-Arg-aldehyde), in series [1], the “Kass Human Thrombin” value was determined as 590 L/mol × 10^6. For the same molecule, the “Kass Xa” value in series [6] is on record as 5.6 L/mol × 10^6. Besides, the “Kass Trypsin” value in series [2] worked out at 160 L/mol × 10^6. Further, the “Kass Plasmin” value in series [3] came out at 7.7 L/mol × 10^6. In series [4], the “Kass t-PA” value turned out to be 0.37 L/mol × 10^6. Also, the “Percent Relative Activity (Index of Bioavailability)” value in series [5] is given as 13%.
